Columns and labels:
Format in all cases: biochemical
[1] = biological target: T1, HDAC6 (Homo sapiens, UniProt Q9UBN7); assay: Human HDAC enzyme inhibitor Fluor-de-Lys assay, HDAC6
T1 sequence (Q9UBN7 1-1215): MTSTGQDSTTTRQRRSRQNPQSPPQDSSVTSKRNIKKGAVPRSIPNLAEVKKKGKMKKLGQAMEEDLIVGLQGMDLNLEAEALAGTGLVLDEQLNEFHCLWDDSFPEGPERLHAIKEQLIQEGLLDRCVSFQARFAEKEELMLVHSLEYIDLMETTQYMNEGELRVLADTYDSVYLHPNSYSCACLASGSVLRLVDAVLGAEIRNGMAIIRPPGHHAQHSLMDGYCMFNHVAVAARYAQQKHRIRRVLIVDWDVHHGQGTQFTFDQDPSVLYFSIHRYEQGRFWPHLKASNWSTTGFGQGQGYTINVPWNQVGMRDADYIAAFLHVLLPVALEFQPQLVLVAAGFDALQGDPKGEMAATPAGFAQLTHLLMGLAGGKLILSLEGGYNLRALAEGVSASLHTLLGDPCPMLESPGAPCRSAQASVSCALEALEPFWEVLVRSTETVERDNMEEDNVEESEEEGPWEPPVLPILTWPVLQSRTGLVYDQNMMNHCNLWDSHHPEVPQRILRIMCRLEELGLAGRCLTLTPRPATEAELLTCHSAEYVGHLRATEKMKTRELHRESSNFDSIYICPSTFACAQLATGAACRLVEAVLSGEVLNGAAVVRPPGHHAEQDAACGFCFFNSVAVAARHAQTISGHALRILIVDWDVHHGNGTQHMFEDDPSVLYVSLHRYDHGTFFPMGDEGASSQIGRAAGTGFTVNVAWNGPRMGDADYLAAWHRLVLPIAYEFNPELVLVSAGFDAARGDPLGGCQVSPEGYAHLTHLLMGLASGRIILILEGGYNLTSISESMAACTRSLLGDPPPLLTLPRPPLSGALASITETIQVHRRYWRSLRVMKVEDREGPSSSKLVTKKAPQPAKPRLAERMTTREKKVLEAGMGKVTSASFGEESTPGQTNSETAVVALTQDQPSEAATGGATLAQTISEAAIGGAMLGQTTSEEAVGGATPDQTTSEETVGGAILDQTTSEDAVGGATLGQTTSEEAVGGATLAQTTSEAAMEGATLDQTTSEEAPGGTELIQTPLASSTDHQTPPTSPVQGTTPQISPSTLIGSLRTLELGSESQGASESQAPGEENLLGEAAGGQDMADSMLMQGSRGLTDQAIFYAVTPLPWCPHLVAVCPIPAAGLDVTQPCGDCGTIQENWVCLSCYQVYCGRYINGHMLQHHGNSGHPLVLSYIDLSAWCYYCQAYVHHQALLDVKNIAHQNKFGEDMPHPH

[2] = biological target: T2, Recombinant human HDAC3/SMRT heterodimer (Homo sapiens, UniProt O15379); assay: Human HDAC enzyme inhibitor Fluor-de-Lys assay, HDAC3/SMRT
T2 construct: FLAG (C); made in house
T2 sequence (O15379 whole entry): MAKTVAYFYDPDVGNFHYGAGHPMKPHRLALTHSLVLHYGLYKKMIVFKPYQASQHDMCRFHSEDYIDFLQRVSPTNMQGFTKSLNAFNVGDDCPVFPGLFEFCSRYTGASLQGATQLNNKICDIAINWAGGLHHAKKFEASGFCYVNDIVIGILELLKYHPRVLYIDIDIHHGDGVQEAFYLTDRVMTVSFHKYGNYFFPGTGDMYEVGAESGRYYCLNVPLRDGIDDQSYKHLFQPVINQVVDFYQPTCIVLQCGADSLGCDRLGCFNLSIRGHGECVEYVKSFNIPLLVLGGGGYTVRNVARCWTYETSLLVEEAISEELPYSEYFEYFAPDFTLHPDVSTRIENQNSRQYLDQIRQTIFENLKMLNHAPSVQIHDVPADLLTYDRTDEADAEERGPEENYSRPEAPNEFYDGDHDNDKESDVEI
T2 sequence (Q9Y618 1-899 partner limits assumed): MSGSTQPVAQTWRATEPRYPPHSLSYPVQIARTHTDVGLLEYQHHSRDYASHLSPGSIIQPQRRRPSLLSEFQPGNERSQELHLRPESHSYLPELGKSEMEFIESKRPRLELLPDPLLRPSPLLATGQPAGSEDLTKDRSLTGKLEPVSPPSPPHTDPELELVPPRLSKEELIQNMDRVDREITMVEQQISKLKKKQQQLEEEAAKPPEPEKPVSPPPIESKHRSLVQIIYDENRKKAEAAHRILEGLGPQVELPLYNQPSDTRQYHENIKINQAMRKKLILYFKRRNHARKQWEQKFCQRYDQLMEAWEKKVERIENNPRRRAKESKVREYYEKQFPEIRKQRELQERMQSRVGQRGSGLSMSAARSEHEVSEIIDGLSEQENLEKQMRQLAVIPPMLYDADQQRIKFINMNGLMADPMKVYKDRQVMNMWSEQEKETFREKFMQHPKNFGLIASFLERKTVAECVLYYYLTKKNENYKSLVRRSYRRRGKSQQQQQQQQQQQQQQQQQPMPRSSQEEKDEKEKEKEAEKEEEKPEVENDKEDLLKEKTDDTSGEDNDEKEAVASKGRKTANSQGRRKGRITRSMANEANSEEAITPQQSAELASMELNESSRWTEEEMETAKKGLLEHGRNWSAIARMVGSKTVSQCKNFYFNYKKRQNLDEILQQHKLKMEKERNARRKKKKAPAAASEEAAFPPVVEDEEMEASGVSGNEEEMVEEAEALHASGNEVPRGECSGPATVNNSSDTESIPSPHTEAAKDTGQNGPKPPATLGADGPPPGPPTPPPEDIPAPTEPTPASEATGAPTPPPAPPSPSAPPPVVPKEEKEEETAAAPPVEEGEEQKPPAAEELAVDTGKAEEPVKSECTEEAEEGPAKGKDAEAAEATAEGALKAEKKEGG

[3] = biological target: T3, Recombinant human HDAC8 (Homo sapiens, UniProt Q9BY41); assay: Human HDAC enzyme inhibitor Fluor-de-Lys assay, HDAC8
T3 construct: purchased Enzo Life Sciences BML-SE145-0100
T3 sequence (Q9BY41 1-377): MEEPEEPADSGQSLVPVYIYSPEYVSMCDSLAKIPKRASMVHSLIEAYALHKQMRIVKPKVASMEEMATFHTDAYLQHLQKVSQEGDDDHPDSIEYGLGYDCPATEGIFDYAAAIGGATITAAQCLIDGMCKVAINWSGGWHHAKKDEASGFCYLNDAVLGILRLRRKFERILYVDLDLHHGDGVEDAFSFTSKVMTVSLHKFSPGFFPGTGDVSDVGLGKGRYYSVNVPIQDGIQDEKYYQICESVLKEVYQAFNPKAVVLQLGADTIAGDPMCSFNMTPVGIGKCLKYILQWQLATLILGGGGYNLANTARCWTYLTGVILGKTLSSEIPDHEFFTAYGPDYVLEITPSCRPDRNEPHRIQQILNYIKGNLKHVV

[4] = biological target: T4, Recombinant human HDAC1 (Homo sapiens, UniProt Q13547); assay: Human HDAC enzyme inhibitor Fluor-de-Lys assay, HDAC1
T4 construct: FLAG (C); made in house
T4 sequence (Q13547 whole entry): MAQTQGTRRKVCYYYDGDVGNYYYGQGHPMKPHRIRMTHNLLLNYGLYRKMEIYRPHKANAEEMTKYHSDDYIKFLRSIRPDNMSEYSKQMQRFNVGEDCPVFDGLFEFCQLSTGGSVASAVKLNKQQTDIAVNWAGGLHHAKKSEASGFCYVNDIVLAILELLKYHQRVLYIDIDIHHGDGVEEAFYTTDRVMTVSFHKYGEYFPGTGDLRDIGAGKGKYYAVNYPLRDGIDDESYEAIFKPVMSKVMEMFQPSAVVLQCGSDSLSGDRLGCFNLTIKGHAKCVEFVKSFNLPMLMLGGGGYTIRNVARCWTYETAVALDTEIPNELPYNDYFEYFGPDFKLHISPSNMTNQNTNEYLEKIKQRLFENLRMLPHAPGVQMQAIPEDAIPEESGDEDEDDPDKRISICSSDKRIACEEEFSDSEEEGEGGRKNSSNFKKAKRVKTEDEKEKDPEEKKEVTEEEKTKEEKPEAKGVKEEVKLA
In short: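 Fluor-de-Lys format at room temperature (23° C.): compounds titrated 10-point, 1:3, preincubated with HDAC before substrate addition; HDAC1 run at 0.3 nM enzyme with 20 μM BML-KI104. Developer with excess HDAC inhibitor ends the reaction, and trypsin-liberated AMC fluorescence is the read-out.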

[5] = biological target: T5, Recombinant human HDAC2 (Homo sapiens, UniProt Q92769); assay: Human HDAC enzyme inhibitor Fluor-de-Lys assay, HDAC2
T5 construct: Full length human HDAC2-FLAG was expressed in baculovirus infected Sf9 cells; FLAG (C); made in house; host or cells: Sf9 (baculovirus)
T5 sequence (Q92769 whole entry): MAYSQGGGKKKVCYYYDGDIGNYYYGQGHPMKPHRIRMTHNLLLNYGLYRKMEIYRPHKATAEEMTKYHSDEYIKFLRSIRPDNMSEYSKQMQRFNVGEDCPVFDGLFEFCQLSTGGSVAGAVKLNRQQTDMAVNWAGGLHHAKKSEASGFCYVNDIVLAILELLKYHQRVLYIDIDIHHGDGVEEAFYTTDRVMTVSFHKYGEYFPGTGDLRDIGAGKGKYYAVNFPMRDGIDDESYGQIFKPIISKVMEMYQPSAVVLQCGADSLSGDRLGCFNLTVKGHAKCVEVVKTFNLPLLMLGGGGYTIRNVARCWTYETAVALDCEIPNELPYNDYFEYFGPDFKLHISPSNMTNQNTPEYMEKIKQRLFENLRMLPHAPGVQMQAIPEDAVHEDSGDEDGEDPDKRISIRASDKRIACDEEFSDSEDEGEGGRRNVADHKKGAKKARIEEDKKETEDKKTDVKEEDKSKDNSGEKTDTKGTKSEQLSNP
In short: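 Fluor-de-Lys format at room temperature (23° C.): compounds titrated 10-point, 1:3, preincubated with HDAC before substrate addition. Developer with excess HDAC inhibitor ends the reaction, and trypsin-liberated AMC fluorescence is the read-out.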

Row | Compound | IC50 [1] | IC50 [2] | IC50 [3] | IC50 [4] | IC50 [5]
1 | CCN1CCC2(CC1)C[C@@H]2C(=O)N[C@@H](CCCCCC(=O)CC1CC1)c1ncc(-c2cc3ccc(C)nc3cc2OC)o1 [Compound 167] | 3.32 µM | 0.00112 µM | 8.27 µM | 0.00097 µM | 0.008 µM
2 | CCC(=O)CCCCC[C@H](NC(=O)[C@H]1CC12CCN(C)CC2)c1ncc(-c2cc(OC)c3ccccc3n2)[nH]1 [Compound 170] | 0.923 µM | 0.00484 µM | 0.835 µM | 0.00579 µM | 0.0169 µM
3 | CCC(=O)CCCCC[C@H](NC(=O)[C@H]1CC12CCN(C)CC2)c1ncc(-c2ccc3nc(C)cc(Cl)c3c2)[nH]1 [Compound 174] | 0.951 µM | 0.00043 µM | 1.21 µM | 0.00055 µM | 0.0021 µM
4 | CCC(=O)CCCCC[C@H](N)c1ncc(-c2ccc3nc(C)ccc3c2)[nH]1 [Compound 178] | > 45 µM | 0.0549 µM | 3.26 µM | 0.107 µM | 0.386 µM
5 | C=CCN1CCC2(CC1)C[C@@H]2C(=O)N[C@@H](CCCCCC(=O)CC)c1ncc(-c2ccc3c(c2)C2CCC3N2CC=C)[nH]1 (stereo partly drawn) [Compound 179, (1S)—N-{(1S)-7-oxo-1-[5-(9-prop-2-en-1-yl-1,2,3,4-tetrahydro-1,4-epiminonaphthalen-6-yl)-1H-imidazol-2-yl]nonyl}-6-prop-2-en-1-yl-6-azaspiro[2.5]octane-1-carboxamide] | 9.53 µM | 0.0175 µM | 8.66 µM | 0.0583 µM | 0.38 µM
6 | C=CCN1CCC2(CC1)C[C@@H]2C(=O)N[C@@H](CCCCCC(=O)CC)c1ncc(-c2cccc3c2C2CCC3N2CC=C)[nH]1 (stereo partly drawn) [Compound 180, (1S)—N-{(1S)-7-oxo-1-[5-(9-prop-2-en-1-yl-1,2,3,4-tetrahydro-1,4-epiminonaphthalen-5-yl)-1H-imidazol-2-yl]nonyl}-6-prop-2-en-1-yl-6-azaspiro[2.5]octane-1-carboxamide] | 2.12 µM | 0.00255 µM | 0.27 µM | 0.0054 µM | 0.0296 µM
7 | CCN1CCC2(CC1)C[C@@H]2C(=O)N[C@@H](CCCCCC(=O)CC1CCC1)c1ncc(-c2cc3ccc(C)nc3cc2OC)o1 [Compound 184] | 9.28 µM | 0.0184 µM | > 45 µM | 0.00951 µM | 0.0388 µM
8 | COc1cc2nc(C)ccc2cc1-c1cnc([C@H](CCCCCC(=O)CC2CCC2)NC(=O)[C@H]2CC23CCN(C)CC3)o1 [Compound 185] | 36.4 µM | 0.026 µM | > 45 µM | 0.0151 µM | 0.038 µM
9 | CCC(=O)CCCCC[C@H](NC(=O)[C@H]1CC12CCN(CC)CC2)c1ncc(-c2cc3nn(C)cc3cc2OC)o1 [Compound 189] | 0.159 µM | 0.00234 µM | 27.5 µM | 0.00733 µM | 0.03 µM
10 | CCC(=O)CCCCC[C@H](NC(=O)[C@H]1CC12CCN(C)CC2)c1nnc(-c2cc3ccc(C)nc3cc2OC)o1 [Compound 191] | 2.05 µM | 0.00168 µM | 43.2 µM | 0.00216 µM | 0.0053 µM
11 | CCC(=O)CCCCC[C@H](NC(=O)C1=NOC2(CCN(C)CC2)C1)c1ncc(-c2cc3ccc(=O)n(C)c3cc2OC)o1 [Compound 193] | > 0.9 µM | 0.00181 µM | > 0.9 µM | 0.00301 µM | 0.0109 µM
12 | COc1cc2nc(C)ccc2cc1-c1cnc([C@H](CCCCCC(=O)CC2CC2)NC(=O)[C@H]2CC23CCN(C)CC3)o1 [Compound 195, (1S)—N-{(1S)-8-cyclopropyl-1-[5-(7-methoxy-2-methylquinolin-6-yl)-1,3-oxazol-2-yl]-7-oxooctyl}-6-methyl-6-azaspiro[2.5]octane-1-carboxamide] | 21.5 µM | 0.00171 µM | 7.86 µM | 0.00086 µM | 0.0097 µM
13 | CCC(=O)CCCCC[C@H](NC(=O)C1=NOC2(CCN(C)CC2)C1)c1ncc(-c2cc3ccc(C)nc3cc2OC)o1 [Compound 196] | 0.759 µM | 0.00073 µM | > 0.9 µM | 0.00142 µM | 0.006 µM
14 | CCC(=O)CCCCC[C@H](NC(=O)[C@H]1CC12CCN(C)CC2)c1ncc(-c2cc3ccc(=O)n(C)c3cc2OC)o1 [Compound 198] | 0.426 µM | 0.00065 µM | > 0.9 µM | 0.00087 µM | 0.0038 µM
15 | CCN1CCC2(CC1)C[C@@H]2C(=O)N[C@@H](CCCCCC(=O)CC1CC1)c1ncc(-c2ccc(F)cc2)[nH]1 [Compound 201] | 35.8 µM | 0.00806 µM | 14.2 µM | 0.00718 µM | 0.0326 µM
16 | CCC(=O)CCCCC[C@H](NC(=O)C1=NOC2(CCN(CC)CC2)C1)c1ncc(-c2cc3ccc(C)nc3cc2OC)o1 [Compound 204] | 0.592 µM | 0.0007 µM | > 0.9 µM | 0.00034 µM | 0.0039 µM
17 | CCC(=O)CCCCC[C@H](NC(=O)C1=NOC2(CCN(CC)CC2)C1)c1ncc(-c2cc3ccc(C)nc3cc2OC)[nH]1 [Compound 207] | 1.35 µM | 0.00036 µM | 1.59 µM | 0.00024 µM | 0.0021 µM
18 | CCC(=O)CCCCC[C@H](N)c1ncc(-c2cc3ccc(C)nc3cc2OC)[nH]1 [Compound 209, (S)-9-amino-9-(5-(7-methoxy-2-methylquinolin-6-yl)-1H-imidazol-2-yl)nonan-3-one] | > 0.9 µM | 0.0216 µM | 0.144 µM | 0.0529 µM | 0.151 µM
19 | CCC(=O)CCCCC[C@H](NC(=O)[C@H]1CC12CCN(CC)CC2)c1nc(-c2cc3ccc(C)nc3cc2OC)cn1COC(=O)C(C)(C)C [Compound 215, {2-[(1S)-1-({[(1S)-6-ethyl-6-azaspiro[2.5]oct-1-yl]carbonyl}amino)-7-oxononyl]-4-(7-methoxy-2-methylquinolin-6-yl)-1H-imidazol-1-yl}methyl 2,2-dimethylpropanoate] | > 0.9 µM | 0.00115 µM | > 0.9 µM | 0.00089 µM | 0.004 µM
20 | CCC(=O)CCCCC[C@H](NC(=O)C1=NOC2(CCN(C)CC2)C1)c1ncc(-c2cc3ccncc3nc2OC)o1 [Compound 216] | 0.786 µM | 0.0135 µM | > 0.9 µM | 0.00711 µM | 0.0348 µM
21 | CCC(=O)CCCCC[C@H](NCCN(C)C)c1ncc(-c2cc3ccc(C)nc3cc2OC)[nH]1 [Compound 217, (9S)-9-{[2-(dimethylamino)ethyl]amino}-9-[5-(7-methoxy-2-methylquinolin-6-yl)-1H-imidazol-2-yl]nonan-3-one] | > 0.9 µM | 0.0109 µM | > 0.9 µM | 0.00456 µM | 0.0503 µM
22 | CCC(=O)CCCCC[C@H](NC(=O)C1=NOC2(CCN(CC3CC3)CC2)C1)c1ncc(-c2cc3ccc(C)nc3cc2OC)[nH]1 [Compound 219] | > 0.9 µM | 0.00034 µM | > 0.9 µM | 0.0001 µM | 0.0018 µM

— US12590099B2, “Inhibitors of histone deacetylase useful for the treatment or prevention of HIV infection” (Merck Sharp & Dohme LLC, priority 2018, dated 2026)
